Source: patent US10150760B2, “Compounds for use in preparing heterocyclic triazole agonists of the APJ receptor” (AMGEN INC., priority 2016, dated 2018)

Target: human APJ receptor (Homo sapiens (Human), UniProt P35414)
Assay: [35S]GTPγS binding assay on membranes from CHO cells stably expressing human APJ receptor
Type: biochemical
Details: read-out: Activity hAPJ SPA EC50 IP
Outline: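 Agonist-driven [35S]GTPγS (0.2 nM) binding was measured over 90 min at room temperature on human APJ-expressing CHO membranes with bead capture, in buffer containing 3 μM GDP, 200 mM NaCl and 5 mM MgCl2 (pH 7.5). Excess unlabelled GTPγS (100 μM) gave nonspecific signal; EC50 from non-linear fits.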

Chain of human APJ receptor (P35414 whole entry): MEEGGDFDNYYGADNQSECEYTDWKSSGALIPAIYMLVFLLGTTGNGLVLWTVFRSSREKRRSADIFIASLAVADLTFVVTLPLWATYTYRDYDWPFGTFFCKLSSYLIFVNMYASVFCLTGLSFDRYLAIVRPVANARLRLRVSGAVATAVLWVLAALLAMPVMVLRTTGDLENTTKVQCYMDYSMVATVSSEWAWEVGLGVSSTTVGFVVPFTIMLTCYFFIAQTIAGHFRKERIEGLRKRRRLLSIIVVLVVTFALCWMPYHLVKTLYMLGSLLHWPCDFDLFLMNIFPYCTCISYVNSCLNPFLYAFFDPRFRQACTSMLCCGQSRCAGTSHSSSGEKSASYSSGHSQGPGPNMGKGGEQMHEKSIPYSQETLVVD

Row | Structure (SMILES) | EC50
1 | COc1cccc(OC)c1-n1c(NS(=O)(=O)[C@@H](C)[C@H](OC)c2ncc(Cl)cn2)nnc1[C@H]1CCCCO1 (single isomer, unassigned) [Example 84.0, (1R,2S)-1-(5-chloropyrimidin-2-yl)-N-(4-(2,6-dimethoxyphenyl)-5-((S)-tetrahydro-2H-pyran-2-yl)-4H-1,2,4-triazol-3-yl)-1-methoxypropane-2-sulfonamide or (1R,2S)-1-(5-chloropyrimidin-2-yl)-N-(4-(2,6-dimethoxyphenyl)-5-((R)-tetrahydro-2H-pyran-2-yl)-4H-1,2,4-triazol-3-yl)-1-methoxypropane-2-sulfonamide] | 0.8 nM
2 | COc1cccc(OC)c1-n1c(NS(=O)(=O)[C@@H](C)[C@H](C)c2ncc(C)cn2)nnc1[C@H]1CCCCO1 (single isomer, unassigned) [Example 85.0, (2S,3R)-N-(4-(2,6-dimethoxyphenyl)-5-((S)-tetrahydro-2H-pyran-2-yl)-4H-1,2,4-triazol-3-yl)-3-(5-methylpyrimidin-2-yl)butane-2-sulfonamide or (2S,3R)-N-(4-(2,6-dimethoxyphenyl)-5-((R)-tetrahydro-2H-pyran-2-yl)-4H-1,2,4-triazol-3-yl)-3-(5-methylpyrimidin-2-yl)butane-2-sulfonamide] | 9.6 nM
3 | COc1cccc(OC)c1-n1c(NS(=O)(=O)[C@@H](C)[C@H](C)c2ncc(C)cn2)nnc1[C@H]1CCCCO1 (single isomer, unassigned) [Example 86.0, (2S,3R)-N-(4-(2,6-dimethoxyphenyl)-5-((S)-tetrahydro-2H-pyran-2-yl)-4H-1,2,4-triazol-3-yl)-3-(5-methylpyrimidin-2-yl)butane-2-sulfonamide or (2S,3R)-N-(4-(2,6-dimethoxyphenyl)-5-((R)-tetrahydro-2H-pyran-2-yl)-4H-1,2,4-triazol-3-yl)-3-(5-methylpyrimidin-2-yl)butane-2-sulfonamide] | 2.1 nM
4 | COc1cccc(OC)c1-n1c(NS(=O)(=O)[C@@H](C)[C@H](C)c2ncc(Cl)cn2)nnc1[C@H]1CCCCO1 (single isomer, unassigned) [Example 87.0, (2S,3R)-3-(5-chloropyrimidin-2-yl)-N-(4-(2,6-dimethoxyphenyl)-5-((S)-tetrahydro-2H-pyran-2-yl)-4H-1,2,4-triazol-3-yl)butane-2-sulfonamide or (2S,3R)-3-(5-chloropyrimidin-2-yl)-N-(4-(2,6-dimethoxyphenyl)-5-((S)-tetrahydro-2H-pyran-2-yl)-4H-1,2,4-triazol-3-yl)butane-2-sulfonamide] | 2.4 nM
5 | COc1cccc(OC)c1-n1c(NS(=O)(=O)[C@@H](C)[C@H](C)c2ncc(Cl)cn2)nnc1[C@H]1CCCCO1 (single isomer, unassigned) [Example 88.0, (2S,3R)-3-(5-chloropyrimidin-2-yl)-N-(4-(2,6-dimethoxyphenyl)-5-((S)-tetrahydro-2H-pyran-2-yl)-4H-1,2,4-triazol-3-yl)butane-2-sulfonamide or (2S,3R)-3-(5-chloropyrimidin-2-yl)-N-(4-(2,6-dimethoxyphenyl)-5-((S)-tetrahydro-2H-pyran-2-yl)-4H-1,2,4-triazol-3-yl)butane-2-sulfonamide] | 0.42 nM
6 | COc1cccc(OC)c1-n1c(NS(=O)(=O)[C@@H](C)[C@H](C)c2cnc(C)cn2)nnc1[C@H]1CCCO1 (single isomer, unassigned) [Example 89.0, (2S,3R)-N-(4-(2,6-dimethoxyphenyl)-5-((S)-tetrahydrofuran-2-yl)-4H-1,2,4-triazol-3-yl)-3-(5-methylpyrazin-2-yl)butane-2-sulfonamide or (2S,3R)-N-(4-(2,6-dimethoxyphenyl)-5-((R)-tetrahydrofuran-2-yl)-4H-1,2,4-triazol-3-yl)-3-(5-methylpyrazin-2-yl)butane-2-sulfonamide] | 23 nM
7 | COc1cccc(OC)c1-n1c(NS(=O)(=O)[C@@H](C)[C@H](C)c2cnc(C)cn2)nnc1[C@H]1CCCO1 (single isomer, unassigned) [Example 90.0, (2S,3R)-N-(4-(2,6-dimethoxyphenyl)-5-((S)-tetrahydrofuran-2-yl)-4H-1,2,4-triazol-3-yl)-3-(5-methylpyrazin-2-yl)butane-2-sulfonamide or (2S,3R)-N-(4-(2,6-dimethoxyphenyl)-5-((R)-tetrahydrofuran-2-yl)-4H-1,2,4-triazol-3-yl)-3-(5-methylpyrazin-2-yl)butane-2-sulfonamide] | 370 nM
8 | COc1ncnc(OC)c1-n1c(NS(=O)(=O)[C@@H](C)[C@H](OC)c2ncc(Cl)cn2)nnc1C1CCCOC1 (single isomer, unassigned) [Example 91.0, (1R,2S)-1-(5-chloropyrimidin-2-yl)-N-(4-(4,6-dimethoxypyrimidin-5-yl)-5-((S)-tetrahydro-2H-pyran-3-yl)-4H-1,2,4-triazol-3-yl)-1-methoxypropane-2-sulfonamide or (1R,2S)-1-(5-chloropyrimidin-2-yl)-N-(4-(4,6-dimethoxypyrimidin-5-yl)-5-((R)-tetrahydro-2H-pyran-3-yl)-4H-1,2,4-triazol-3-yl)-1-methoxypropane-2-sulfonamide] | 290 nM
9 | COc1ncnc(OC)c1-n1c(NS(=O)(=O)[C@@H](C)[C@H](OC)c2ncc(Cl)cn2)nnc1[C@H]1CCCOC1 (single isomer, unassigned) [Example 92.0, (1R,2S)-1-(5-chloropyrimidin-2-yl)-N-(4-(4,6-dimethoxypyrimidin-5-yl)-5-((S)-tetrahydro-2H-pyran-3-yl)-4H-1,2,4-triazol-3-yl)-1-methoxypropane-2-sulfonamide or (1R,2S)-1-(5-chloropyrimidin-2-yl)-N-(4-(4,6-dimethoxypyrimidin-5-yl)-5-((R)-tetrahydro-2H-pyran-3-yl)-4H-1,2,4-triazol-3-yl)-1-methoxypropane-2-sulfonamide] | 42 nM
10 | COc1ncnc(OC)c1-n1c(NS(=O)(=O)[C@@H](C)[C@H](C)c2ncc(Cl)cn2)nnc1[C@H]1CCOC1 (single isomer, unassigned) [Example 93.0, (2S,3R)-3-(5-chloropyrimidin-2-yl)-N-(4-(4,6-dimethoxypyrimidin-5-yl)-5-((R)-tetrahydrofuran-3-yl)-4H-1,2,4-triazol-3-yl)butane-2-sulfonamide or (2S,3R)-3-(5-chloropyrimidin-2-yl)-N-(4-(4,6-dimethoxypyrimidin-5-yl)-5-((S)-tetrahydrofuran-3-yl)-4H-1,2,4-triazol-3-yl)butane-2-sulfonamide] | 170 nM
11 | COc1ncnc(OC)c1-n1c(NS(=O)(=O)[C@@H](C)[C@H](C)c2ncc(Cl)cn2)nnc1[C@H]1CCOC1 (single isomer, unassigned) [Example 94.0, (2S,3R)-3-(5-chloropyrimidin-2-yl)-N-(4-(4,6-dimethoxypyrimidin-5-yl)-5-((R)-tetrahydrofuran-3-yl)-4H-1,2,4-triazol-3-yl)butane-2-sulfonamide or (2S,3R)-3-(5-chloropyrimidin-2-yl)-N-(4-(4,6-dimethoxypyrimidin-5-yl)-5-((S)-tetrahydrofuran-3-yl)-4H-1,2,4-triazol-3-yl)butane-2-sulfonamide] | 190 nM
